{
  "source": "paper PMC10376691",
  "about": "“Inhibition of Acetylcholinesterase and Amyloid-β Aggregation by Piceatannol and Analogs: Assessing In Vitro and In Vivo Impact on a Murine Model of Scopolamine-Induced Memory Impairment” (Antioxidants, 2023)",
  "key": {"Aβ peptide (1–42)": {"molecular_target": "T1, Aβ peptide (1–42) (Homo sapiens, UniProt P05067)", "T1 construct": "The Aβ peptide (1–42) was synthesized and purchased from Kelowna International Scientific Inc; purchased Kelowna International Scientific Inc. (New Taipei, Taiwan); host or cells: chemical synthesis", "T1 sequence (P05067 672-713)": "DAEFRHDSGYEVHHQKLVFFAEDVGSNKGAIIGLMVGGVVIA", "experiment": "biochemical", "experimental": "To prepare the 10 μM Aβ peptide working solution, commercial Aβ peptide was first weighted and dissolved in HFIP to 1 mM. Next, the solvent was evaporated in a hood and then re-dissolved using 100 μL of 60 mM NaOH. It was then diluted to 10 μM working solutions with 50 mM phosphate buffer (pH 7.4, containing 150 mM sodium chloride and 1 mM EDTA), following previous reports. […] DMSO instead of the sample solution was used as the control. The 50 mM phosphate buffer was used instead of the Aβ working solution as the sample blank. […] The IC50 of the inhibition against the Aβ aggregation of PIC and its analogs was calculated from each linear equation using three test concentrations and their inhibition capacities."}, "SH-SY5Y cells": {"tested_on": "SH-SY5Y cells", "experiment": "Neuroprotection against Aβ peptide (25–35)-induced cell deaths (MTT)", "format": "cell-based, human", "conditions": "pre-treatment 1, 2 and 10 μM for 24 h, then 40 μg/mL Aβ (25–35) 24 h; vs control p < 0.05", "experimental": "The human SH-SY5Y neuroblastoma cell lines (CRL-2266, Lot No. 58979771) were purchased from American Type Culture Collection (Manassas, VA, USA) and used as models to investigate PIC and its analogs for neuroprotective activities against Aβ-induced cell deaths and the stimulation of neurite outgrowths. The SH-SY5Y cells were grown in DMEM/F-12 medium supplemented with 10% FBS at 37 °C under a humidified atmosphere and 5% CO2 [41]. […]. The SH-SY5Y cells (10,000 cells/well) were seeded and cultured in a DMEM/F-12 medium containing 10% FBS for 24 h at 37 °C under a humidified atmosphere and 5% CO2. […] The medium was then removed, and 40 μg/mL Aβ peptide (25–35) (dissolved in PBS) or an equal aliquot of PBS was added to the medium for another 24 h culture. The MTT was used to evaluate cell viability, and the absorbance at 570 nm was determined. The DMSO used instead of the sample solution was blank (recognized as 100%), and each treatment was expressed as relative cell viability (%). To study the stimulation of neurite outgrowth, the SH-SY5Y cells (5000 cells/well) were seeded on a 96-well plate pre-coated with poly-L-lysine and then cultured in the DMEM/F-12 medium containing 10% FBS overnight at 37 °C under a humidified atmosphere and 5% CO2. After being removed from the culture medium, each PIC, GNT, RHA, and isoRHA (at a final concentration of 10 μM in the 0.1%DMSO) or 0.1% DMSO (the control) was added to the DMEM/F-12 medium containing 10% FBS and refreshed every three days. On day 3 and day 6, each of the culture plates was photographed using an inverted microscope (ECLIPSE TS100, Nikon Instruments Inc., Tokyo, Japan). The culture medium was removed and washed with PBS, and the cultured cells in each well were fixed with 4% paraformaldehyde. To measure cell viability and quantify the neurite outgrowths of the treated SH-SY5Y in a 96-well plate, the neurite outgrowth staining kit (a two-color fluorescence assay kit) was used, following a previous report or the protocol in the manufacturer’s manual (publication number: MAN0007224), which included a cell membrane-stained fluorescent dye (orange-red fluorescence), a cell viability indicator (green fluorescence), and a reagent for background masking. The fluorescence ratios of Ex555nm/Em565nm and Ex495nm/Em515nm were determined for the neurite outgrowths and the cell viabilities, respectively. The value for the control was recognized as 100%, and each treatment was expressed relative to the control."}, "recombinant human AChE": {"molecular_target": "T2, recombinant human AChE (Homo sapiens, UniProt P22303)", "T2 construct": "purchased R&D Systems Inc. (Minneapolis, MN, USA)", "T2 sequence (P22303 32-614)": "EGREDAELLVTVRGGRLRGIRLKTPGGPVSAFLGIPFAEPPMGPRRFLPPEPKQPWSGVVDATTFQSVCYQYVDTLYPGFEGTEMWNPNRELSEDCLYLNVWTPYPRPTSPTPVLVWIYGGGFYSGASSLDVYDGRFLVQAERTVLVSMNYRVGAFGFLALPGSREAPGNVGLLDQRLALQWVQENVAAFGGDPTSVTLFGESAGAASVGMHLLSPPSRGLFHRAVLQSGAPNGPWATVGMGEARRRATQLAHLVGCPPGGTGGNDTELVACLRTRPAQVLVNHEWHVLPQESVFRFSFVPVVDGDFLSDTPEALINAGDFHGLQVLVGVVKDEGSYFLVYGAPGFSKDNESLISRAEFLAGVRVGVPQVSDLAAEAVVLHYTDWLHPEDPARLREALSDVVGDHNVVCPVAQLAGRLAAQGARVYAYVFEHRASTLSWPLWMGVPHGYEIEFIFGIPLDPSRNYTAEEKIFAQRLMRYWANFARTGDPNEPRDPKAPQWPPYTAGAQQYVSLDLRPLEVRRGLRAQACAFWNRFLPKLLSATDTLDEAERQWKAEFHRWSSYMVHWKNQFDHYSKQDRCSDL", "experiment": "AChE inhibitory activity in vitro (acetylthiocholine/DTNB)", "format": "biochemical", "experimental": "Commercially synthesized acetylthiocholine iodide was hydrolyzed using AChE to release thiocholine, which was coupled with DTNB to generate the yellowish 5-thio-2-nitrobenzoate for in vitro AChE activity assays. For the AChE inhibitory activity assay, each analog was dissolved in the DMSO, and final concentrations of 100, 200, and 500 μM were used for comparisons. An equal volume of DMSO instead of the sample solution was used in the blank group and expressed as 100% AChE activity. […] AChE inhibition (%) was calculated as follows: [(A405blank − A405sample)/(A405blank)] × 100%."}, "[1]": {"conditions": "rats, cited from earlier work"}, "[2]": {"conditions": "co-administration of PIC and RSV, each at 180 μmol/kg"}},
  "note": "Where two headings read alike, the source gives them in different places.",
  "data": [
    {"smiles": "Oc1cc(O)cc(C=Cc2ccc(O)c(O)c2)c1", "note": "[PIC, 3,5,3′,4′-tetrahydroxystilbene]", "values": [
      {"measurement": "IC50", "setting": "Aβ peptide (1–42)", "value": 0.48, "unit": "µM"},
      {"measurement": "anti-Aβ aggregation capacity, fold higher than that of RSV", "setting": "Aβ peptide (1–42); vs RSV", "value": 2.94, "unit": "fold"},
      {"measurement": "neuroprotection: cell viability against Aβ peptide (25–35)-induced cell deaths", "setting": "SH-SY5Y cells", "value": "elevated cell viabilities"},
      {"measurement": "IC50", "setting": "recombinant human AChE", "value": 282, "unit": "µM"},
      {"measurement": "AChE inhibitory capacity, fold higher than that of RSV", "setting": "recombinant human AChE; vs RSV", "value": 1.23, "unit": "fold"},
      {"measurement": "AUC0–8h of intact PIC/AUC0–8h of total PIC metabolites", "setting": "[1]; PIC 90 μmol/kg", "value": 18.6, "unit": "%"},
      {"measurement": "AUC0–8h of intact PIC/AUC0–8h of total PIC metabolites", "setting": "[1]; PIC 180 μmol/kg", "value": 23.9, "unit": "%"},
      {"measurement": "AUC0–8h of intact PIC/AUC0–8h of total PIC metabolites", "setting": "[1]; PIC 360 μmol/kg", "value": 25.1, "unit": "%"},
      {"measurement": "AUC0–8h in plasma, intact compound", "setting": "[1]; [2]", "value": 8.6, "unit": "µM·h"},
      {"measurement": "AUC0–8h of intact PIC/AUC0–8h of total PIC metabolites", "setting": "[1]; [2]", "value": 16.3, "unit": "%"},
      {"measurement": "AUC0–8h in plasma, intact compound", "setting": "[1]; intragastric, 90 μmol/kg", "value": 4.3, "unit": "µM·h"},
      {"measurement": "AUC0–8h in plasma, intact compound", "setting": "[1]; intragastric, 180 μmol/kg", "value": 12.3, "unit": "µM·h"},
      {"measurement": "AUC0–8h in plasma, intact compound", "setting": "[1]; intragastric, 360 μmol/kg", "value": 20.6, "unit": "µM·h"}
    ]}
  ]
}
